The test system of experiment [1] is MDA-MB-231. Kind of experiment: drug sensitivity score (DSS), cytotoxicity CellTox Green; higher = more cytotoxic; extreme values may be limits of the assay. The following applies: 72 h.
Experiment [2] deals with MDA-MB-231. The experiment in a line: drug sensitivity score (DSS), cell viability CellTiter-Glo; higher = more sensitive; extreme values may be limits of the assay. The following applies: 72 h. In general terms: Cellular ATP, detected with luciferase, serves as a proxy for viable cell number.
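Throughout, for drug sensitivity score (DSS), cytotoxicity CellTox Green: DSS summarises each dose–response curve by combining IC50, EC50, maximal inhibition and efficacy across drug concentrations.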

In the case of `COc1ccc(C2=N[C@@H](c3ccc(Cl)cc3)[C@@H](c3ccc(Cl)cc3)N2C(=O)N2CCNC(=O)C2)c(OC(C)C)c1` [Nutlin-3], the drug sensitivity score in the experiment with MDA-MB-231 [1] (shRNA: shPPFIA1_1), in the experiment with MDA-MB-231 [1] (shRNA: shScramble), in the experiment on MDA-MB-231 [2] (shRNA: shPPFIA1_1) and with MDA-MB-231 [2] (shRNA: shScramble) was 0 DSS throughout.
Take `C/C(=C\c1csc(C)n1)[C@@H]1C[C@@H]2O[C@]2(C)CCC[C@H](C)[C@H](O)[C@@H](C)C(=O)C(C)(C)[C@@H](O)CC(=O)N1` [Ixabepilone]: the drug sensitivity score with MDA-MB-231 [1] (shRNA: shPPFIA1_1) worked out at 3.8 DSS; with MDA-MB-231 [1] (shRNA: shScramble), 3.1 DSS; with MDA-MB-231 [2] (shRNA: shPPFIA1_1) it was 0 DSS; with MDA-MB-231 [2] (shRNA: shScramble) it was 5 DSS.
Take `O=c1[nH]cc(F)c(=O)[nH]1` [Fluorouracil]: the drug sensitivity score in the experiment on MDA-MB-231 [1] (shRNA: shPPFIA1_1) amounted to 0 DSS; in the experiment on MDA-MB-231 [1] (shRNA: shScramble), 0 DSS; in the experiment on MDA-MB-231 [2] (shRNA: shPPFIA1_1), 0 DSS; in the experiment on MDA-MB-231 [2] (shRNA: shScramble) it was 0.6 DSS.
`CC[C@H](CO)Nc1nc(NCc2ccccc2)c2ncn(C(C)C)c2n1` [Seliciclib]: the drug sensitivity score in the experiment on MDA-MB-231 [1] (shRNA: shPPFIA1_1), in the experiment with MDA-MB-231 [1] (shRNA: shScramble), in the experiment on MDA-MB-231 [2] (shRNA: shPPFIA1_1) and in the experiment on MDA-MB-231 [2] (shRNA: shScramble) was 0 DSS throughout.
As for `CCn1c(-c2nonc2N)nc2cnc(Oc3cccc(NC(=O)c4ccc(OCCN5CCOCC5)cc4)c3)cc21`, the drug sensitivity score in the experiment with MDA-MB-231 [1] (shRNA: shPPFIA1_1) is 0 DSS; in the experiment with MDA-MB-231 [1] (shRNA: shScramble), 0 DSS; in the experiment on MDA-MB-231 [2] (shRNA: shPPFIA1_1), 0 DSS; in the experiment with MDA-MB-231 [2] (shRNA: shScramble), 1.5 DSS.
As for `N#CC[C@H](C1CCCC1)n1cc(-c2ncnc3[nH]ccc23)cn1` [Ruxolitinib], the drug sensitivity score turned out to be 0 DSS with MDA-MB-231 [1] (shRNA: shPPFIA1_1), 0 DSS in the experiment on MDA-MB-231 [1] (shRNA: shScramble), 0.6 DSS with MDA-MB-231 [2] (shRNA: shPPFIA1_1) and 2.1 DSS with MDA-MB-231 [2] (shRNA: shScramble).
For `Cc1nc(C(=O)NCC(=O)O)c(O)c2ccc(Oc3ccccc3)cc12` [FG-4592], the drug sensitivity score came to 0 DSS in the experiment on MDA-MB-231 [1] (shRNA: shPPFIA1_1), 0 DSS in the experiment with MDA-MB-231 [1] (shRNA: shScramble), 2.2 DSS in the experiment on MDA-MB-231 [2] (shRNA: shPPFIA1_1) and 2.9 DSS in the experiment with MDA-MB-231 [2] (shRNA: shScramble).
Regarding `Cc1ccc2nc(CN(CCN(Cc3nc4ccc(C)cc4[nH]3)Cc3nc4ccc(C)cc4[nH]3)Cc3nc4ccc(C)cc4[nH]3)[nH]c2c1`, the drug sensitivity score with MDA-MB-231 [1] (shRNA: shPPFIA1_1) was determined as 6.8 DSS; with MDA-MB-231 [1] (shRNA: shScramble), 1.9 DSS; in the experiment on MDA-MB-231 [2] (shRNA: shPPFIA1_1) it was 0.6 DSS; in the experiment with MDA-MB-231 [2] (shRNA: shScramble) it was 2.6 DSS.
The like results for `N#Cc1ccc(COC[C@H]2O[C@@H](n3c(NCc4ccc(Cl)c(Cl)c4)nc4c(N)ncnc43)[C@H](O)[C@@H]2O)cc1` were, in that order, 0 DSS, 0 DSS, 2.3 DSS and 1.7 DSS.
In the case of `CC/C(=C(\c1ccccc1)c1ccc(OCCN(C)C)cc1)c1ccccc1` [Tamoxifen], the drug sensitivity score in the experiment on MDA-MB-231 [1] (shRNA: shPPFIA1_1) came out at 6.3 DSS; with MDA-MB-231 [1] (shRNA: shScramble) it was 1.8 DSS; in the experiment with MDA-MB-231 [2] (shRNA: shPPFIA1_1) it was 1.8 DSS; with MDA-MB-231 [2] (shRNA: shScramble), 1 DSS.
Turning to `CNC(=O)CN1CCC(Oc2cc3c(Nc4cccc(Cl)c4F)ncnc3cc2OC)CC1` [Sapitinib], the drug sensitivity score with MDA-MB-231 [1] (shRNA: shPPFIA1_1) came out at 0 DSS; in the experiment on MDA-MB-231 [1] (shRNA: shScramble), 0 DSS; in the experiment on MDA-MB-231 [2] (shRNA: shPPFIA1_1) it was 0 DSS; in the experiment on MDA-MB-231 [2] (shRNA: shScramble) it was 8.5 DSS.
As for `Cn1ncc(Cl)c1-c1cc(C(=O)N[C@H](CN)Cc2cccc(F)c2)sc1Cl` [Afuresertib], the drug sensitivity score was 0 DSS with MDA-MB-231 [1] (shRNA: shPPFIA1_1), 0 DSS with MDA-MB-231 [1] (shRNA: shScramble), 0.5 DSS with MDA-MB-231 [2] (shRNA: shPPFIA1_1) and 1.6 DSS with MDA-MB-231 [2] (shRNA: shScramble).
In the case of `OCCn1cc(-c2cnc3nnn(Cc4ccc5ncccc5c4)c3n2)cn1`, the drug sensitivity score stood at 0 DSS in the experiment on MDA-MB-231 [1] (shRNA: shPPFIA1_1), 0 DSS with MDA-MB-231 [1] (shRNA: shScramble), 0.9 DSS in the experiment with MDA-MB-231 [2] (shRNA: shPPFIA1_1) and 0 DSS with MDA-MB-231 [2] (shRNA: shScramble).
On to `Cc1ccc(C(=O)Nc2ccc(Oc3cc4cnn(C)c4cc3-c3cn[nH]c3)c(F)c2)c(=O)n1-c1ccc(F)cc1` [Merestinib], for which the drug sensitivity score in the experiment with MDA-MB-231 [1] (shRNA: shPPFIA1_1) amounted to 0 DSS; in the experiment on MDA-MB-231 [1] (shRNA: shScramble) it was 0 DSS; with MDA-MB-231 [2] (shRNA: shPPFIA1_1) it was 9 DSS; in the experiment with MDA-MB-231 [2] (shRNA: shScramble), 0 DSS.
As for `CC(=O)Nc1ccc(C(=O)Nc2ccccc2N)cc1` [Tacedinaline], the drug sensitivity score in the experiment with MDA-MB-231 [1] (shRNA: shPPFIA1_1), in the experiment on MDA-MB-231 [1] (shRNA: shScramble), with MDA-MB-231 [2] (shRNA: shPPFIA1_1) and with MDA-MB-231 [2] (shRNA: shScramble) was 0 DSS throughout.

The record behind these values is the supplement of paper PMC10920090.
